In patent US20260207568A1, “COMPOSITIONS AND METHODS FOR IMPROVING NEUROLOGICAL DISEASES AND DISORDERS” (CuraSen Therapeutics, Inc., priority 2022, published 2026):
Entries after “also recorded” stand apart in the source; their conditions may differ.

How the values were obtained:
subjects = test: Visual verbal learning test (VVLT); type: in vivo, human; conditions: for effect on the VVLT (learning and memory): crossover study, 3 agents plus placebo
Description: Subjects are presented 30 words on a screen, one at a time, for 1 second with a 1-second interval between words over a total of 1 minute. This is repeated in 3 trials. After each trial, subjects are asked to recall as many words as they can. […] Since this was a crossover study, everyone who completed Part A was dosed with the 3 agents plus placebo.

[1] = system: healthy volunteers and subjects with MCI or PD; conditions: in vivo
Description: (§5) Safety and tolerability were evaluated by questioning for adverse events (AEs), triplicate 12-lead ECGs, laboratory safety tests on urine and blood with multiple chemistry panels including potassium, blood glucose levels, vital sign measurements, and physical examinations at regular time-points during the study.

[2] = system: healthy volunteers and subjects with MCI or PD; test: Safety and tolerability (TEAEs, heart rate, blood pressure, labs), Example 6; conditions: for mean increase in supine heart rate from baseline: no nadolol
Description: as §5

clinical = conditions: human, in vivo; for Cmax: po
Description: (§6) Pharmacokinetic (PK) parameters were computed from the individual plasma drug concentrations using a non-compartmental approach.

[3] = Prior CuraSen studies of low-dose nadolol (CST-107) on peripheral β2-AR agonist effects; conditions: 1 mg nadolol (CST-107), co-administered with 80 μg CST-103
healthy volunteers [4] = test: Peripheral effects of Compound 03-5 (heart rate, glucose, potassium, tachycardia, tremor, palpitations) with nadolol; type: in vivo, human
Description: Data are presented as individual observations for all available subjects.
(§1) On all dosing days, study drug(s) were administered orally after an overnight fast of at least 8 hours.
(§2) Routine measures of ECG, vital signs, safety labs, physical exams and plasma sample collections for analysis of drug pharmacokinetics (PK) were undertaken according to the Schedule of Events (Table 1).
(§3) In Cohort D2, 8 healthy volunteers aged 55-75 years were admitted on Day −1 for a 5-day confinement period at the research facility. […] Subjects remained in-residency until all study procedures are completed on Day 4. • ? Compound 03-5 dose administration. Compound 03-5 was administered as escalating doses on Day 1 (1 mg), Day 2 (3 mg) and Day 3 (10 mg). CANTAB was conducted twice in all subjects on the day prior to start of dosing (Day −1) to familiarize subjects with the platform, and prior to dosing and approximately 3 hours after Compound 03-5 administration on Days 1, 2, and 3.

healthy volunteers [5] = test: Cerebral blood flow by ASL MRI in healthy volunteers (Example 6)
Description: In the 4 cohorts of healthy volunteers, study drug was administered as follows:
All subjects received single oral dose of 20 μg clenbuterol on Day 1, and a single oral dose of 40 μg clenbuterol on Day 8, with ASL MRI scans before and 3 hours after dosing on both days.
All subjects received a single oral dose of 80 μg clenbuterol on Day 1, with ASL MRI scans before, and 3 hours 1 day and 2 days after clenbuterol administration to evaluate the longevity of the ASL MRI signal
ASL MRI scans were conducted before and 3 hours after clenbuterol administration on Day 1 and Day 7.
ASL MRI scans were conducted before and 3 hours after clenbuterol administration on Day 2 and Day 9.
All scans were conducted using pseudo continuous ASL MRI. Only subjects with no contraindications to being in a strong magnetic field were evaluated by MRI. Participants were positioned comfortably and supine in the head coil to minimize any motion during the scan with proper back support, and support under the knees for comfort and to reduce motion in the scan, and the head was centered in the head coil and velcro straps or foam padding were used to reduce motion.
Imaging was performed on a GE Signa PET-MR 3T system.
For accurate quantitative measurements of brain structures a high-resolution T1-weighted, 3D volumetric sequences (e.g., MP-RAGE, IR-FSPGR) in the sagittal plane. Scan parameters of the pCASL sequence were: straight axial/transversal slices, labeling duration=1.8s, post-labeling delay=2.0 s, 15-20 cm slab thickness, pCASL average labeling gradient 1 mT/m, pCASL slice selective labelling gradient 10 mT/m, pASL TI1 (QUIPSS II Saturation Time) 800 ms, pASL labeling slab thickness 15-20 cm, 70 volumes, spatial resolution 3 mm in-plane/5 mm through-plane/gap 1 mm, 3D RARE stack-of-spiral or 3D GRASE 4-15 ms readouts, turbo-factor of 8 to 12; echo train of up to 300 ms, 2D EPI Single shot, minimum echo time, and duration 5 min.
Multiple ROIs were evaluated including whole brain, cortex, subcortical, thalamus, amygdala, hippocampus, and cerebellum which were chosen due to their relevance for cognition or alertness, and the periaqueductal grey for its relevance to motor control. Grey matter (GM) masking was applied for reporting of CBF in the GM of these ROIs.
Regional mean CBF values were extracted for each ROI and subsequently, the CBF for each region was compared before and after administration of clenbuterol.
Baseline/Predose versus Postdose change (%) for each subject and each region was calculated as 100*(Postdose_CBF−Baseline_CBF)/(Baseline_CBF). For each region, the cohort summary of CBF change (=mean relative displacement, MRD) was described by the group mean and standard deviation of the individual CBF changes.

healthy subjects [6] = test: Cognitive performance, CuraSen study CLIN-003; type: in vivo, human; conditions: daily dose of 80 μg CST-103, healthy subjects, preliminary data
Description: (§4) It was hypothesized that by improving cerebral perfusion, particularly in areas of the brain that are relevant for symptoms that are commonly found in PD and MCI, the administration of a β-AR agonist would have a positive effect on clinically relevant symptoms such as memory and cognition.

[7] = ASL MRI cerebral perfusion, CuraSen study CLIN-002; type: in vivo; conditions: CST-103 80 and 160 μg
Description: as §4

healthy subjects [8] = test: Adaptive tracking test; type: in vivo, human; conditions: single dose 160 μg clenbuterol
Description: Adaptive tracking measures visuomotor coordination and vigilance. In this test, the subject uses a joystick to move a small dot so that it stays within a continuously moving circle on a computer screen (Boland 1984). During the test, the speed of the circle is adjusted in response to the subject's ability to keep the dot in the circle, ensuring that the test is adapted to the individual subject. […] The improvement shown by subjects is in the same range as that seen with subjects treated with the acetylcholinesterase inhibitor donepezil, which is in clinical use for the treatment of mild to moderate AD (Groeneveld 2016).

human subjects = test: Cerebral blood flow after a single dose of clenbuterol and/or nadolol, or pindolol (Example 1); type: in vivo
healthy subjects [9] = test: Cerebral perfusion by ASL MRI after single doses of clenbuterol (Example 3); type: in vivo, human
Description: In a clinical study, healthy subjects were administered doses of clenbuterol ranging from 20 to 160 μg and ASL MRI was conducted prior to and after dosing with an objective to ascertain whether this neuroimaging method enables the detection of a clinically relevant CNS signal.
In a region of interest (ROI) analysis focusing on the hippocampus, which is well understood to be affected in neurodegenerative disorders, a single dose of 80 μg of clenbuterol causes a robust increase in perfusion (see FIG. 7). […] Our hypothesis is that by improving cerebral perfusion, particularly in areas of the brain that are relevant for symptoms that are commonly found in neurodegenerative diseases such as PD and AD, the administration of a β-AR agonist (such as a β-agent) will have a positive effect on clinically relevant symptoms such as memory and cognition.

subjects with MCI or PD = test: Cerebral blood flow by ASL MRI in subjects with MCI or PD (Example 6); type: in vivo, human; conditions: for CBF MRD in the hippocampus, repeat dose comparison: 80 μg clenbuterol without nadolol; for CBF mean (±SEM) MRD in hippocampus / CBF mean (±SEM) MRD in whole brain: Day 9, N=4
[10] = Plasma pharmacokinetics of clenbuterol and nadolol (Example 6); conditions: human, in vivo
Description: as §6

[11] = system: healthy volunteers aged 55-75 years; test: CANTAB cognition battery, Cohort D2; type: in vivo, human; conditions: Compound 03-5 1, 3, 10 mg once daily, 2 h after 3 mg nadolol
Description: Data are presented as mean changes from the within-day pre-dose assessment.
as §3

healthy volunteers [12] = test: Heart rate by triplicate ECG, Compound 03-5 with or without nadolol; type: in vivo, human; conditions: 6 mg Compound 03-5 after pre-administration of 1 mg nadolol
Description: Heart rate was measured by triplicate ECG recordings. Data are presented as means changes from time-matched measures recorded on the day before the first dose of study drug (Day −1).
as §1, §2

[13] = doses of 80 and 160 μg clenbuterol
[14] = 80 μg clenbuterol, absence of nadolol
[15] = 80 μg clenbuterol, presence of 1 mg nadolol

## CC(C)(C)NCC(O)c1ccc(O)c(CO)c1 (stereo not drawn) [salbutamol]
subjects
  effect on the VVLT (learning and memory): positive effects on the VVLT

## CC(C)(C)NCC(O)COc1cccc2c1CC(O)C(O)C2 (stereo not drawn) [nadolol]
[1]
  increase in heart rate after 80 μg clenbuterol: effectively blocked
[2]; all subjects enrolled
  TEAEs considered related to nadolol: No TEAEs
[2]; pre-administration of nadolol
  side effects of β2-agonist (increased heart rate, tremor, palpitations): mostly eliminated
clinical
  half-life: 7 to 13 h
clinical; 1 mg
  Cmax: 1 to 1.5 ng/mL
clinical; 4 mg
  Cmax: 2.8 to 4 ng/mL
[3]
  attenuation of peripheral β2-AR agonist effects (heart rate, palpitations, tremors, potassium, glucose): could attenuate these peripheral effects; also recorded: sufficient to inhibit peripheral β2-AR agonist mediated effects
Healthy volunteers [4]; Cohort D1, 1 mg nadolol pre-administered, Compound 03-5 orally up to 6 mg
  effect of nadolol on Compound 03-5 increase in heart rate and other peripheral effects (hyperglycemia, hypokalemia): substantially attenuated
Healthy volunteers [4]; Cohort D1, nadolol 1 mg up to 40 mg pre-administered, Compound 03-5 3-12 mg
  effect of nadolol on peripheral effects of Compound 03-5 (heart rate, glucose, potassium, tachycardia, tremor, palpitations): blocked the peripheral effects
Healthy volunteers [4]; Cohort D2, nadolol 3 mg pre-administered, Compound 03-5 1-10 mg
  effect of nadolol on peripheral effects of Compound 03-5 on heart rate, etc.: similarly blocked the peripheral effects
Healthy volunteers [4]; pre-administration of 1 mg nadolol, 6 mg Compound 03-5
  effects of Compound 03-5 on blood glucose and potassium, tachycardia, tremor and palpitations: Concomitant attenuation
Healthy volunteers [4]; subjects dosed with nadolol 1-40 mg, Cohorts D1 and D2
  hypokalemia caused by Compound 03-5: attenuation of hypokalemia

## CC(C)(C)NCC(O)c1cc(Cl)c(N)c(Cl)c1 (stereo not drawn) [clenbuterol]
Healthy volunteers [5]; 20 μg clenbuterol, no nadolol (first value of the list)
  CBF mean (±SEM) percent relative displacement (MRD) from baseline in the hippocampus: −1.7±1.3%
Healthy volunteers [5]; 160 μg clenbuterol about 2.5 h after 5 mg nadolol (Day 9)
  CBF mean SEM MRD from baseline: 14.0±6.5%
Healthy volunteers [5]; 160 μg clenbuterol in the absence of nadolol
  CBF mean (±SEM) percent relative displacement (MRD) from baseline in the hippocampus: 28.5±4.1%
Healthy volunteers [5]; 20, 40, 80 and 160 μg clenbuterol, absence of nadolol
  CBF by ASL MRI: dose-dependent increase in CBF
Healthy volunteers [5]; 3 hours after single dose of 80 μg clenbuterol
  CBF change from baseline: increases in CBF from baseline are evident
Healthy volunteers [5]; 24 hours after single dose of 80 μg clenbuterol
  CBF change from baseline: decreased but still evident
Healthy volunteers [5]; 48 hours after single dose of 80 μg clenbuterol
  CBF change from baseline: returned to baseline
Healthy subjects [6]
  cognitive performance: improves cognitive performance
subjects
  effect on the VVLT (learning and memory): positive effects on the VVLT
subjects; immediate and delayed recall, crossover study vs placebo
  VVLT improvement in correctly recalled words: 1.5 to 2 correctly recalled words
[7]
  cerebral perfusion (ASL MRI): robust global increase in cerebral perfusion
  increase in cerebral perfusion in the hippocampus: up to 28%
  increase in cerebral perfusion in the thalamus: up to 15%
Healthy subjects [8]
  performance in adaptive tracking (percent time dot kept within moving circle): improved adaptive tracking; also recorded: performance in adaptive tracking improves
Healthy subjects [8]; healthy subjects, preliminary data
  cognition as measured by adaptive tracking and word recall: improves cognition
[2]; 3 hours after 160 μg clenbuterol with pre-administration of 5 mg nadolol
  decrease in heart rate from baseline: 2.75 bpm
[2]; all subjects
  overall safety and tolerability: overall safe and well tolerated
[2]; all subjects enrolled
  severity of TEAEs: mild-to-moderate
[2]; clenbuterol in the absence or presence of nadolol
  effects on supine, sitting or standing blood pressure: no clinically meaningful effects
[2]; healthy volunteers
  subjects with TEAEs considered related to clenbuterol: 12/25
[2]; healthy volunteers, 3 hours after 20 μg clenbuterol
  mean increase in supine heart rate from baseline: 7.5 bpm
[2]; healthy volunteers, 3 hours after 40 μg clenbuterol
  mean increase in supine heart rate from baseline: 7.5 bpm
[2]; healthy volunteers, 3 hours after 80 μg clenbuterol
  mean increase in supine heart rate from baseline: 9.2-12.38 bpm
[2]; healthy volunteers, 3 hours after 160 μg clenbuterol
  mean increase in supine heart rate from baseline: 30.5 bpm
[2]; subjects with MCI or PD, 80 μg clenbuterol
  increase in heart rate: 10.67-14.65 bpm
[2]; subjects with neurodegenerative disease
  subjects with TEAEs considered related to clenbuterol: 6/8
Human subjects; single dose clenbuterol 160 μg
  cerebral blood flow (CBF) relative to baseline: robust global increase in cerebral blood flow (CBF); also recorded: positive increase in cerebral blood flow
Human subjects; single dose clenbuterol 160 μg and nadolol 5 mg
  cerebral blood flow (CBF) relative to baseline: robust global increase in cerebral blood flow (CBF)
Human subjects; single dose clenbuterol 30 to 160 μg (nadolol 5 mg in some subjects), tracked 3 days
  cerebral blood flow (CBF) relative to baseline: robust global increase in cerebral blood flow (CBF)
Healthy subjects [9]; clenbuterol dose of 40 μg
  cerebral perfusion as measured by CBF: minimal increase
Healthy subjects [9]; clenbuterol doses below 30 μg
  cerebral perfusion as measured by CBF: do not produce significant cerebral perfusion increases
Healthy subjects [9]; [13]
  improvements in perfusion in brain areas relevant to neurodegenerative disorders: ~25%
  increases in cerebral perfusion in hippocampus and thalamus: 20% to 25
Healthy subjects [9]; single dose 80 μg clenbuterol, 6 healthy subjects aged 44-52
  increase in hippocampal perfusion, average: 25%
Healthy subjects [9]; single dose 160 μg clenbuterol, healthy subjects
  cerebral perfusion (ASL MRI): robust global increase in cerebral perfusion
Subjects with MCI or PD; Day 2, 4 subjects
  CBF MRD in the hippocampus, repeat dose comparison: 17.55±6.37%
Subjects with MCI or PD; Day 9, 4 subjects
  CBF MRD in the hippocampus, repeat dose comparison: 14.72±10.56%
Subjects with MCI or PD; [14]
  CBF mean (±SEM) MRD in hippocampus: 14.7±10.6%
  CBF mean (±SEM) MRD in whole brain: 4.8±12.6%
Subjects with MCI or PD; [15]
  CBF mean (±SEM) MRD in hippocampus: 12.5±5.7%
  CBF mean (±SEM) MRD in whole brain: 5.9±8.6%
Subjects with MCI or PD; 80 μg clenbuterol, with and without pre-administration of 1 mg nadolol
  CBF in multiple brain regions incl. hippocampus and thalamus: Significant increases in CBF
[10]
  half-life: 12 to 31 h

## CC(C)NCC(O)COc1cccc2[nH]ccc12 (stereo not drawn) [pindolol]
subjects
  effect on the VVLT (learning and memory): detrimental effect

## CC(C)(C)NC[C@H](O)c1cccc(C#N)n1 [Compound 03-5, (S)-6-(2-(tert-butylamino)-1-hydroxyethyl)picolinonitrile]
[11]
  performance in the CANTAB cognition battery: improvements in performance in the CANTAB cognition battery were observed
Healthy volunteers [12]
  mean maximum increase in heart rate: 7 beats per minute
Healthy volunteers [4]; Compound 03-5 monotherapy 0.3 mg-6 mg, Cohorts A1-A5
  hypokalemia (blood potassium levels): Dose-dependent increases in hypokalemia
